# Experimental data from patent US9173935B2, “Phospholipid drug analogs” (Telormedix SA, priority 2010, dated 2015).
# Several values for one entry are separate records, joined by “and”; a condition that tells them apart may be missing. Equal values may be shown once. Read-outs that look alike come from different tables or passages of the source.
# What was measured:
# CYP1A2 = CYP1A2 (Homo sapiens (Human), UniProt P05177); test: Fluorescent High Throughput P450 assay, CYP1A2; format: biochemical; settings: substrate CEC; read-out: CYP1A2 IC50 (Mean ± S.D.)
# CYP1A2, sequence (P05177 whole entry, looked up): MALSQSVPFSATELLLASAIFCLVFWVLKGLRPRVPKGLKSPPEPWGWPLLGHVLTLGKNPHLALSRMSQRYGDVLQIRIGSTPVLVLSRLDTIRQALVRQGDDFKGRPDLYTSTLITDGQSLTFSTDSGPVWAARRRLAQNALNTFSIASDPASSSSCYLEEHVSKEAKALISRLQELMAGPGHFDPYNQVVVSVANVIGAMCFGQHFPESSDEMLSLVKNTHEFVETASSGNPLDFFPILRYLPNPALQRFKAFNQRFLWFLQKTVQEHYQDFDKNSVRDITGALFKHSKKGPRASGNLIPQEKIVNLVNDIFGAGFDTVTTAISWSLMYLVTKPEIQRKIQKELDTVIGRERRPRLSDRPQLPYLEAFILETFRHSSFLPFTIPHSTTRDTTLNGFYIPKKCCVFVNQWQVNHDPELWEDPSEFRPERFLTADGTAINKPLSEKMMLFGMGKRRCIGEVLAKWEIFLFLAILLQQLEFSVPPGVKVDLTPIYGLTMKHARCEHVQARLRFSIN
# Protocol: (§1) Inhibition of the P450 isoforms was measured in specific assays using specific substrates that become fluorescent upon CYP metabolism. Compounds, dissolved in ACN (acetonitrile) (CYP2E1, CYP2C8, CYP2B6, CYP3A5) or DMSO (all remaining isoforms), were tested in duplicate (n=2) in concentration-response curves (eight concentrations) in a 96-well plate containing incubation/NADPH regenerating buffer. Specific isoenzymes and substrates were added and incubated at 37° C. Reactions were terminated at different times, depending on the assays, and plates read on a Fluoroskan Ascent at the appropriate emission/excitation wavelengths. Concentration-response curves performed in duplicate for known inhibitors for each isoenzyme were tested in every assay as positive control.
# PBMCs = test: IL-6 and TNF-alpha secretion in PBMCs from three donors (ELISA); format: cell-based, human
# Protocol: EC50 values were determined for control and each drug candidate for IL-6 and TNF-alpha secretion. […] The cells were treated with TLR7 agonists for 24 hours in 7 doses. The conditioned media was removed for ELISA analyses for IL-6 and TNF-alpha, and cell survival determined by the XTT method according to the protocol from the supplier. […] Concentrations of IL-6 and TNF-alpha were determined by ELISA from R&D Systems using the Microsoft Excel Software. The results were analyzed in Graph Pad Prism in order to prepare dose-response curves, and for determination of EC50 values.
# [1] = tested on: Salmonella typhimurium TA1535, TA1537, TA98, TA100; test: Bacterial mutation assay, Salmonella typhimurium; settings: absence or presence of S9 metabolism
# Protocol: The five tester strains TA1535, TA1537, TA98, TA100 and WP2 uvrA were used. Experiments were performed both in the absence and presence of metabolic activation, using liver S9 fraction from rats pre-treated with phenobarbitone and betanaphthoflavone. SC12 was used as a solution in dimethylsulfoxide (DMSO).
# [2] = tested on: Raw264.7 mouse macrophage cell line; test: IL-6 and TNF-alpha secretion in Raw264.7 cells (ELISA); format: cell-based; settings: 24 hours treatment, 7 doses
# Protocol: EC50 values were determined for control and each drug candidate for IL-6 and TNF-alpha secretion. […] The cells were plated in 96 well plates and treated with TLR7 agonists for 24 hours in 7 doses. The conditioned media was removed after 24 hours for ELISA analyses. The cells were subsequently assayed for viability using the XTT assay according to the guidelines from the supplier. […] The experiment was performed in quadruplicate wells for each testing series, and the supernatant pooled and measured by ELISA in triplicates. Concentrations of IL-6 and TNF-alpha were determined by ELISA from R&D Systems using the Microsoft Excel Software. The results were analyzed in Graph Pad Prism in order to prepare dose-response curves, and for determination of EC50 values.
# CYP3A4 = CYP3A4 (Homo sapiens (Human), UniProt P08684); test: Fluorescent High Throughput P450 assay, CYP3A4; format: biochemical; settings: substrate BFC; read-out: CYP3A4 IC50 (Mean ± S.D.)
# CYP3A4, sequence (P08684 whole entry, looked up): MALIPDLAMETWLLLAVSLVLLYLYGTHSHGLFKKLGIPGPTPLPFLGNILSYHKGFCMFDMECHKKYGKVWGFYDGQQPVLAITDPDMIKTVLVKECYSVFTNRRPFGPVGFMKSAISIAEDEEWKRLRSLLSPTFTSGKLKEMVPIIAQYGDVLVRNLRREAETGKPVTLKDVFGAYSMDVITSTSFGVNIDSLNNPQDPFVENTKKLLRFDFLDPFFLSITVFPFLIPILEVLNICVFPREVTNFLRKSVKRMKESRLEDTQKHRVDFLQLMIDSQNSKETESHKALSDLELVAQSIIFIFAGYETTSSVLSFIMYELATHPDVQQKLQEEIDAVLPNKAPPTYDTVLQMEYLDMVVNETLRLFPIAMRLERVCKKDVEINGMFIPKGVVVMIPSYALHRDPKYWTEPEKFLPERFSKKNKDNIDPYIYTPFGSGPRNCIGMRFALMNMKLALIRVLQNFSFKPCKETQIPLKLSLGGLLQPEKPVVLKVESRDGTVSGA
# Protocol: as §1
# [3] = Serum exposure after intravesical chronic treatment
# Protocol: Serum samples were taken at time points: day 0, 2 hours, day 1, 24 hours, and day 6, 2 hours.
# The plate was shaken for 10 minutes and filtered under vacuum (5-10 mm Hg). […] The plate was shaken for 10 minutes and filtered under vacuum (5-10 mm Hg). Samples were evaporated and re-suspended in 70 microliters of acetonitrile/methanol 1:1. […] Column: Acquity BEH C18 50×2.1 mm 1.7 micrometers; injection volume 5 microliters, T column 50° C. […] Column: Acquity BEH C8 50×2.1 mm 1.7 micrometers injection. volume 10 microliters, T column 50° C.
# CYP2E1 = CYP2E1 (Homo sapiens (Human), UniProt P05181); test: Fluorescent High Throughput P450 assay, CYP2E1; format: biochemical; settings: substrate MFC; read-out: CYP2E1 IC50 (Mean ± S.D.)
# CYP2E1, sequence (P05181 whole entry, looked up): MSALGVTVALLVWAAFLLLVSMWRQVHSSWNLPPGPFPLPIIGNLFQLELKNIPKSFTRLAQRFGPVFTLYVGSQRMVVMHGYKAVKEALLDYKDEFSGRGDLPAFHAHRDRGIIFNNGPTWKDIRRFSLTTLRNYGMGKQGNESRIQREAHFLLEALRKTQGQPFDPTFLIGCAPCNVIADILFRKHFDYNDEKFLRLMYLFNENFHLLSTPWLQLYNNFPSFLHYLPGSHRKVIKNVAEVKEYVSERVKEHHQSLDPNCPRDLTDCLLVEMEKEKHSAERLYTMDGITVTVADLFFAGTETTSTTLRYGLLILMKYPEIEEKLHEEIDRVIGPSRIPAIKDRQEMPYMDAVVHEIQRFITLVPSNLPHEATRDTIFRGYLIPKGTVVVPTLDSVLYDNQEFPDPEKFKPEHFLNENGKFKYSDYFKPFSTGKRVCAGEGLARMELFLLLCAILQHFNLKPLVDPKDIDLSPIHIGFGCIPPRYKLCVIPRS
# Protocol: as §1
# [4] = Stability of solid samples with respect to heat (80° C.), HPLC; format: physicochemical
# Protocol: Solid samples of each compound were maintained at 80° C. and analyzed by HPLC.
# CYP2C9 = CYP2C9 (Homo sapiens (Human), UniProt P11712); test: Fluorescent High Throughput P450 assay, CYP2C9; format: biochemical; settings: substrate MFC; read-out: CYP2C9 IC50 (Mean ± S.D.)
# CYP2C9, sequence (P11712 whole entry, looked up): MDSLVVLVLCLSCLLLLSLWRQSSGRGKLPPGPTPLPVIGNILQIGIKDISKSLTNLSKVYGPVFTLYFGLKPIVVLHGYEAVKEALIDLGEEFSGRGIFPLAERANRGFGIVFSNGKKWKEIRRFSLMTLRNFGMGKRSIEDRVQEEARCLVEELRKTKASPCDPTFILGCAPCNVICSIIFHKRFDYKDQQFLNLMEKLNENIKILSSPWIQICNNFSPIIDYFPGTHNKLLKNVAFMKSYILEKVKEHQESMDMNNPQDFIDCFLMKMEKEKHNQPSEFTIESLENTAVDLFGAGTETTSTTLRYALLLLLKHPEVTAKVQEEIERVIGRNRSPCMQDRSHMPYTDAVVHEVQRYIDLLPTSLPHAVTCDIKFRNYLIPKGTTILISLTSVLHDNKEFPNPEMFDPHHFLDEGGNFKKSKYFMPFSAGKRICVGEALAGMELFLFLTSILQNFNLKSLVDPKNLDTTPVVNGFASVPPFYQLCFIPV
# Protocol: as §1
# CYP3A5 = CYP3A5 (Homo sapiens (Human), UniProt P20815); test: Fluorescent High Throughput P450 assay, CYP3A5; format: biochemical; settings: substrate BFC; read-out: CYP3A5 IC50 (Mean ± S.D.)
# CYP3A5, sequence (P20815 whole entry, looked up): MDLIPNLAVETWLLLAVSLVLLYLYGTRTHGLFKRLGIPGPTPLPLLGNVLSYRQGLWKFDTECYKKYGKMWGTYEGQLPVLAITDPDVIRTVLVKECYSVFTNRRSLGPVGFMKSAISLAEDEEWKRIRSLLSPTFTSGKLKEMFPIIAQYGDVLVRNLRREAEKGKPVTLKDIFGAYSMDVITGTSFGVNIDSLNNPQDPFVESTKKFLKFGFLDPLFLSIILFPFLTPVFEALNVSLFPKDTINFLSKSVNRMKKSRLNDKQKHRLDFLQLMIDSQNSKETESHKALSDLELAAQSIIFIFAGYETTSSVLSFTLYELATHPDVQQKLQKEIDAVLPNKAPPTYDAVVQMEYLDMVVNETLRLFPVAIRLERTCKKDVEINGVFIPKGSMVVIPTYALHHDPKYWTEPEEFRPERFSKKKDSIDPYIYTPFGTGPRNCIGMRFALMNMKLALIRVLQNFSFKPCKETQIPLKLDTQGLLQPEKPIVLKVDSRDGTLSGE
# Protocol: as §1
# human PBMCs = test: IL-6 secretion in human PBMCs, two batches of Compound A and SC12; format: cell-based; settings: 24 h, 4 doses
# Protocol: PBMCs were purified from two donors and plated into 96 well plates at 2×10^5 cells/well in RPMI media including human 2% heat inactivated AB serum, glutamine, Pen-strep and R-mercapto-ethanol. The cells were treated with TLR7 agonists for 24 h in 4 doses. The conditioned media was removed for ELISA analyses for IL-6, and the EC50 value determined for each compound and each batch.
# All compounds were tested in four concentrations (10-1-0.1-0.01 micromolar).
# Concentrations of IL-6 were determined by ELISA from R&D Systems using the Microsoft Excel software. The results were analyzed in Graph Pad Prism in order to prepare dose-response curves, and for determination of EC50 values.
# [5] = Single dose intravenous acute toxicity study in rats; format: in vivo, Sprague Dawley rat; settings: for Mortality: preliminary phase, one male and one female; for Mortality and signs of toxicity: main phase
# Protocol: An additional group, similarly composed, received the vehicle alone and acted as a control. […] Clinical signs were limited to piloerection and reduced activity, observed on the day of dosing.
# In the main phase, 5 male and 5 female animals were dosed at 90 mg/kg and observed for a period of 14 days. A second group, similarly constituted, received the vehicle alone and acted as control. […] In addition, one male and one female dosed at 90 mg/kg were found dead on Day 2 of the study. Twitches, ataxia, piloerection, reduced activity and hunched posture were the major signs observed in animals before death. […] Piloerection was observed up to Day 3 of the study. A second group, similarly composed, was dosed at 80 mg/kg.
# [6] = Day 1, 24 hours, LLOQ 0.5 ng/ml SC12, 2.5 ng/ml Imiquimod
# [7] = Day 6, 2 hours, LLOQ 0.5 ng/ml SC12, 2.5 ng/ml Imiquimod
smiles,measurement,setting,value
CCCCCCCCCCCC(=O)OCC(COP(=O)(O)OCCNC(=O)c1ccc(Cn2c(=O)[nH]c3c(N)nc(OCCOC)nc32)cc1)OC(=O)CCCCCCCCCCC (centres unmarked) [SC12],IC50,CYP1A2,> 100000 nM
same,EC50,"PBMCs; D1, first experiments on three donors, read-out: EC50 values, IL-6 secretion",1440 nM
same,EC50,"PBMCs; D2, first experiments on three donors, read-out: EC50 values, IL-6 secretion",864 nM
same,EC50,"PBMCs; D3, first experiments on three donors, read-out: EC50 values, IL-6 secretion",2780 nM
same,EC50,"PBMCs; Donor 1, 24 hours, read-out: IL-6 secretion MC50",1440 nM
same,EC50,"PBMCs; Donor 1, 24 hours, read-out: TNFa secretion MC50",995 nM
same,EC50,"PBMCs; Donor 2, 24 hours, read-out: IL-6 secretion MC50",864 nM
same,EC50,"PBMCs; Donor 2, 24 hours, read-out: TNFa secretion MC50",275 nM
same,EC50,"PBMCs; Donor 3, 24 hours, read-out: IL-6 secretion MC50",2780 nM
same,EC50,"PBMCs; Donor 3, 24 hours, read-out: TNFa secretion MC50",121 nM
same,EC50,"PBMCs; average of three donors, read-out: IL-6 secretion Average EC50",1700 nM
same,EC50,"PBMCs; average of three donors, read-out: TNFa secretion Average EC50",464 nM
same,Toxicity to tester strains,[1]; 50.0-5000 micrograms/plate,No toxicity was observed
same,Reverse mutation,[1]; up to 5000 micrograms/plate,does not induce reverse mutation
same,EC50,[2]; read-out: EC 50 IL 6,42 nM
same,EC50,[2]; read-out: EC 50 TNF-alpha,41 nM
same,IC50,CYP3A4,13600 ± 700 nM
same,"Levels in serum, Mean ± S.D.","[3]; Day 0, 2 hours",0.5 ± 0.5 ng/mL
same,"Levels in serum, individual mice","[3]; Day 0, 2 hours, intravesical Imiquimod 208 nmol or SC12 206.5 nmol, LLOQ 0.5 ng/ml SC12, 2.5 ng/ml Imiquimod",<LLOQ (2×) and 1.0 ng/ml and 0.5 ng/ml
same,"Levels in serum, Mean ± S.D.",[3]; [6],<LLOQ
same,"Levels in serum, individual mice",[3]; [6],<LLOQ
same,"Levels in serum, Mean ± S.D.",[3]; [7],<LLOQ
same,"Levels in serum, individual mice",[3]; [7],<LLOQ
same,IC50,CYP2E1,9200 ± 100 nM
same,HPLC purity of solid sample,[4]; After 2 hrs at 80° C.,90% HPLC
same,HPLC purity of solid sample,[4]; After 22 hrs at 80° C.,88% HPLC
same,HPLC purity of solid sample,[4]; t = 0,90% HPLC
same,IC50,CYP2C9,33400 ± 300 nM
same,IC50,CYP3A5,10500 ± 500 nM
same,EC50,"human PBMCs; Donor 1, listed as SC12 new 20288",1870 nM
same,EC50,"human PBMCs; Donor 1, listed as SC12 old CH730/2/13D",2010 nM
same,EC50,"human PBMCs; Donor 2, listed as SC12 new 20288",947 nM
same,EC50,"human PBMCs; Donor 2, listed as SC12 old CH730/2/13D",1030 nM
same,Mortality,[5]; 76 mg/kg i.v.,No mortality occurred
same,Mortality and signs of toxicity,[5]; 80 mg/kg i.v.,no mortality and no signs of toxicity
same,Mortality and signs of toxicity,"[5]; 90 mg/kg i.v., 5 male and 5 female",induced mortality or significant signs of toxicity
same,Mortality,[5]; 100 mg/kg i.v.,Both animals died at dosing
same,Maximum tolerated dose,[5]; single intravenous dose,80 mg/kg
